Patent US8912338B2, “Pesticidal compositions” (Dow AgroSciences LLC, priority 2010, dated 2014)

What was measured:
[1] = test system: Sweetpotato Whitefly (Bemisia tabaci); experiment: Insecticidal test for sweetpotato whitefly in foliar spray assay; assay type: in vivo; conditions: 200 ppm foliar spray on cotton plants infested with eggs, live nymphs counted after 8-9 days, Abbott's corrected % control, read-out: BEMITA % Ctrl @ 200 ppm
Description: Cotton plants were used as test substrate and were grown in 3-inch pots and pruned until only 1 small (3-5 cm) true leaf remained. The plants were then placed in a room with whitefly ([…]) adults and allowed to be infested with eggs. After a 2-3 day egg-laying period, plants were taken from the adult whitefly room and the adults were removed from the leaves using compressed air delivered through a hand-held Devilbiss sprayer (23 psi). Plants infested with eggs (100-300 eggs per plant) were placed in a controlled-environment room for 5-6 days at 82° F. and 50% RH until approximately 50% egg hatch. Four cotton plants (4 replicates) were used for each treatment. Compounds (2 mg) were dissolved in 1 mL of acetone solvent, forming stock solutions of 2000 ppm. The stock solutions were diluted 10× with 0.025% Tween 20 in H2O to obtain the test solution of 200 ppm. A hand-held Devilbiss sprayer was used for spraying a solution to both sides of cotton leaf until runoff. Reference plants (solvent check) were sprayed with the diluent only. Treated plants were held in a holding room for 8-9 days at approximately 82° F. and 50% RH prior to grading. Evaluation was conducted by counting the number of live nymphs per plant under a microscope. Insecticidal activity data presented in Table 3 were generated by using Abbott's correction formula: Corrected%Control=100*(X-Y)/X • where X=No. of live nymphs on solvent check plants • Y=No. of live nymphs on treated plants […]

[2] = test system: Cotton Aphid (Aphis gossypii); experiment: Insecticidal test for cotton aphid in a foliar spray assay; assay type: in vivo; conditions: 72 h, 200 ppm foliar spray on squash or cotton seedlings, live aphids counted after three days, Abbott's corrected % control, read-out: APHIGO % Ctrl @ 200 ppm
Description: Squash or cotton seedlings with fully expanded cotyledon leaves were trimmed to one cotyledon per plant and infested with wingless adult and nymph stage cotton aphid (APHIGO) one day prior to chemical application. Each plant was examined before chemical application to ensure uniform infestation (ca. 30-70 aphids per plant). Compounds (2 mg) were dissolved in 2 mL of acetone/methanol (1:1) solvent, forming stock solutions of 1000 ppm. The stock solutions were diluted 5× with 0.025% Tween 20 in H2O to obtain a solution at 200 ppm. A hand-held Devilbiss aspirator type sprayer was used to apply the spray solutions until runoff to both sides of the squash cotyledon leaves. Four plants (4 replications) were used for each concentration of each compound. Reference plants (solvent check) were sprayed with the diluent only. Treated plants were held in a holding room for three days at approximately 25° C. and 40% RH before the number of live cotton aphids on each plant was recorded. Insecticidal activity data presented in Table 3 were generated by using Abbott's correction formula: Corrected%Control=100*(X−Y)/X • where X=No. of live aphids on solvent check plants • Y=No. of live aphids on treated plants

[3] = test system: Green Peach Aphid (Myzus persicae); experiment: Insecticidal test for green peach aphid in foliar spray assay; assay type: in vivo; conditions: 72 h, 200 ppm foliar spray on cabbage seedlings, live aphids counted after three days, Abbott's corrected % control, read-out: MYZUPE % Ctrl @ 200 ppm
Description: Certain molecules disclosed in this document were tested against MYZUPE using procedures described in the following example. In the reporting of the results, the “MYZUPE, APHIGO and BEMITA Rating Table” was used (See Table Section).
Cabbage seedlings grown in 3-inch pots, with 2-3 small (3-5 cm) true leaves, were used as test substrate. The seedlings were infested with 20-50 green peach aphids (wingless adult and nymph stage) one day prior to chemical application. Four pots with individual seedlings were used for each treatment. Compounds (2 mg) were dissolved in 2 mL of acetone/methanol (1:1) solvent, forming stock solutions of 1000 ppm. The stock solutions were diluted 5× with 0.025% Tween 20 in H2O to obtain the test solution at 200 ppm. A hand-held Devilbiss sprayer was used for spraying a solution to both sides of cabbage leaves until runoff. Reference plants (solvent check) were sprayed with the diluent only. Treated plants were held in a holding room for three days at approximately 25° C. and 40% relative humidity (RH) prior to grading. Evaluation was conducted by counting the number of live aphids per plant under a microscope. Insecticidal activity data presented in Table 3 were generated by using Abbott's correction formula: Corrected%Control=100*(X−Y)/X • where X=No. of live aphids on solvent check plants • Y=No. of live aphids on treated plants

Row | Compound | inhibition at 200 ppm [1] [%] | inhibition at 200 ppm [2] [%] | melting point [°C] | inhibition at 200 ppm [3] [%]
1 | CSCCC(=O)N(C)c1nnc(-c2cccnc2)s1 [Compound 1] | 0 to 80 | 80 to 100 | 99 to 101 | 80 to 100
2 | CCSCCC(=O)N(C)c1nnc(-c2cccnc2)s1 [Compound 2] | 0 to 80 | 80 to 100 | 70 to 72 | 80 to 100
3 | COCCC(=O)N(C)c1nnc(-c2cccnc2)s1 [Compound 3] | 0 to 80 | 80 to 100 | 92 to 97.5 | 80 to 100
4 | CC(C)SCCC(=O)N(C)c1nnc(-c2cccnc2)s1 [Compound 4] | 0 to 80 | 80 to 100 | 100 to 105 | 80 to 100
5 | CN(C(=O)CCSCCc1ccccc1)c1nnc(-c2cccnc2)s1 [Compound 5] | 0 to 80 | 0 to 80 | 105 to 108 | 0 to 80
6 | CSCCCC(=O)N(C)c1nnc(-c2cccnc2)s1 [Compound 6] | 0 to 80 | 80 to 100 | 93 to 95 | 80 to 100
7 | CSCCC(=O)Nc1nnc(-c2cccnc2)s1 [Compound 7] | 0 to 80 | 0 to 80 | 211 to 212 | 0 to 80
8 | CCSCC(=O)N(C)c1nnc(-c2cccnc2)s1 [Compound 8] | < 0 | 80 to 100 | 87 to 92 | 80 to 100
9 | CCN(C(=O)CCSC)c1nnc(-c2cccnc2)s1 [Compound 9] | 0 to 80 | 80 to 100 | 116 to 120 | 80 to 100
10 | CN(C(=O)CCSCc1ccccc1)c1nnc(-c2cccnc2)s1 [Compound 11] | 0 to 80 | 0 to 80 | 116 to 118 | 0 to 80
11 | CCOC(=O)CCC(=O)N(C)c1nnc(-c2cccnc2)s1 [Compound 12] | 0 to 80 | 80 to 100 | 137 to 139 | 0 to 80
12 | CN(C(=O)CC[S+](C)[O-])c1nnc(-c2cccnc2)s1 (stereo not shown) [Compound 18, N-methyl-3-(methylsulfinyl)-N-(5-(pyridin-3-yl)-1,3,4-thiadiazol-2-yl)propanamide] | 0 to 80 | 80 to 100 | 138 to 140 | 80 to 100
13 | COCCCC(=O)N(C)c1nnc(-c2cccnc2)s1 [Compound 19] | 0 to 80 | 80 to 100 | 92 to 95 | 0 to 80
14 | CN(C(=O)CCS(C)(=O)=O)c1nnc(-c2cccnc2)s1 [Compound 20, N-methyl-3-(methylsulfonyl)-N-(5-(pyridin-3-yl)-1,3,4-thiadiazol-2-yl)propanamide] | 0 to 80 | 80 to 100 | 199 to 201 | 80 to 100
15 | CSCC(C)(C)C(=O)N(C)c1nnc(-c2cccnc2)s1 [Compound 24, N-2,2-trimethyl-3-(methylthio)-N-(5-(pyridin-3-yl)-1,3,4-thiadiazol-2-yl)propanamide] | 0 to 80 | 80 to 100 | 89 to 91 | 80 to 100
16 | CSCC(=O)N(C)c1nnc(-c2cccnc2)s1 [Compound 29] | 0 to 80 | 80 to 100 | 135 to 139 | 80 to 100

Row | Compound | inhibition at 200 ppm [1] [%] | inhibition at 200 ppm [2] [%] | melting point [°C] | inhibition at 200 ppm [3] [%]
17 | CC(CS(C)(=O)=O)C(=O)N(C)c1nnc(-c2cccnc2)s1 (stereo not shown) [Compound 37] | 0 to 80 | 80 to 100 | – | 80 to 100
18 | CN(C(=O)C(C)(C)CS(C)(=O)=NC#N)c1nnc(-c2cccnc2)s1 (stereo not shown) [Compound 42, N-2,2-trimethyl-3-(methyl-N-cyano-sulfoximinyl)-N-(5-(pyridin-3-yl)-1,3,4-thiadiazol-2-yl)propanamide] | 0 to 80 | 0 to 80 | – | 80 to 100
19 | CN(C(=O)C1(CS(C)(=O)=O)CC1)c1nnc(-c2cccnc2)s1 [Compound 46] | 0 to 80 | 80 to 100 | 208 to 212 | –
20 | CCC(CC)(CSC)C(=O)N(C)c1nnc(-c2cccnc2)s1 [Compound 53] | 0 to 80 | 80 to 100 | – | 0 to 80
21 | CSCCOC(=O)N(C)c1nnc(-c2cncc(F)c2)s1 [Compound 78, [5-(5-fluoropyridin-3-yl)-[1,3,4]thiadiazol-2-yl]-methylcarbamic acid 2-methylsulfanyl-ethyl ester] | 80 to 100 | – | 104 to 106 | 80 to 100
22 | CSCCNC(=O)N(C)c1nnc(-c2cncc(F)c2)s1 [Compound 79, 1-[5-(5-fluoro-pyridin-3-yl)-[1,3,4]thiadiazol-2-yl]-1-methyl-3-(2-methylsulfanyl-ethyl)-urea] | 0 to 80 | – | 100 to 104 | 80 to 100
23 | CCOC(=S)N(C)c1nnc(-c2cncc(F)c2)s1 [Compound 80, [5-(5-fluoro-pyridin-3-yl)-[1,3,4]thiadiazol-2-yl]-methyl-thiocarbamic acid ethyl ester] | 0 to 80 | – | 137 to 140 | 80 to 100
24 | CN(C(=O)CSCc1ccccc1)c1nnc(-c2cncc(F)c2)s1 [Compound 84] | 0 to 80 | – | 145 to 147 | 0 to 80
25 | CSCCOC(=S)N(C)c1nnc(-c2cncc(F)c2)s1 [Compound 85, [5-(5-fluoro-pyridin-3-yl)-[1,3,4]thiadiazol-2-yl]-methyl-thiocarbamic acid 2-methylsulfanyl-ethyl ester] | 0 to 80 | – | 150 to 152 | 0 to 80
26 | CSCC(C)(C#N)C(=O)N(C)c1nnc(-c2cncc(F)c2)s1 (stereo not shown) [Compound 88] | 0 to 80 | – | 109 to 111 | 80 to 100
27 | CSCC(C)(CN)C(=O)N(C)c1nnc(-c2cncc(F)c2)s1 (stereo not shown) [Compound 89, 2-(aminomethyl)-N-[5-(5-fluoro-3-pyridyl)-1,3,4-thiadiazol-2-yl]-N,2-dimethyl-3-methylsulfanyl-propanamide] | 0 to 80 | – | 154 to 157 | 0 to 80
28 | CSCC(C)(C)C(=O)OCC(C)(C)C(=O)N(C)c1nnc(-c2cncc(F)c2)s1 [Compound 91] | 80 to 100 | – | 90 to 93 | 80 to 100
29 | CSCC(C)C(=O)Nc1nnc(-c2cccnc2)s1 (stereo not shown) [Compound 92] | 0 to 80 | – | 176 | 0 to 80
30 | C=CCSCC(C)C(=O)N(C)c1nnc(-c2cccnc2)s1 (stereo not shown) [Compound 94] | 80 to 100 | – | 43 to 46 | 80 to 100
31 | COCCNC(=S)N(C)c1nnc(-c2cccnc2)s1 [Compound 95] | 0 to 80 | – | 118 to 121 | 80 to 100
